For orientation: mass density means mass per unit of volume. The term refractive index denotes the speed of light in vacuum divided by its phase velocity in the sample.

The conditions of data set [1]: 298.15 K; 101.33 kPa; Liquid; Vibrating tube method.
Data set [2] is described as follows: refractive index (Na D-line) (dimensionless). As to conditions: 101.33 kPa, Liquid, Standard Abbe refractometry.

Numbers after ± are expanded uncertainties.

In the case of `CCCC(=O)O` [butanoic acid], in data set [1], the mass density came out at 952.7 ± 0.2 kg/m3. Further, the refractive index in data set [2] (298.2 K) is 1.3976 ± 0.0008. In the case of `CCCCCCO` [hexan-1-ol], the mass density in data set [1] was determined as 815.2 ± 0.6 kg/m3. For the same molecule, in data set [2] (298.15 K), the refractive index turned out to be 1.4155 ± 0.0009. Take `CCCCCC` [hexane]: the mass density in data set [1] came out at 654.6 ± 0.3 kg/m3. Moreover, the refractive index in data set [2] (298.15 K) was found to be 1.3751 ± 0.0008. As for `O` [water], in data set [2] (298.15 K), the refractive index was determined as 1.3325 ± 0.0008.

(Values after the NIST ThermoML archive (doi:10.1016/j.jct.2013.01.015).)
